Measured values published in PubChem BioAssay (NCI).
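How tested: cells in 96-well plates exposed to compound for 48 hours at five concentrations. TGI denotes the concentration required for complete inhibition of growth.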

Key:
Test in all cases: NCI tumour cell line growth inhibition, 48 h
A498 renal = test system: A498 renal
A549 NSCLC = test system: A549 NSCLC
BT-549 breast = test system: BT-549 breast
CCRF-CEM leukemia = test system: CCRF-CEM leukemia
HCC-2998 colon = test system: HCC-2998 colon
HL-60(TB) leukemia = test system: HL-60(TB) leukemia
HOP-62 NSCLC = test system: HOP-62 NSCLC
HOP-92 NSCLC = test system: HOP-92 NSCLC
HT29 colon = test system: HT29 colon
MALME-3M melanoma = test system: MALME-3M melanoma
MDA-MB-435 = test system: MDA-MB-435
MDA-N = test system: MDA-N
NCI-H460 lung = test system: NCI-H460 lung
PC-3 prostate = test system: PC-3 prostate
RXF 393 renal = test system: RXF 393 renal
SF-268 CNS = test system: SF-268 CNS
SK-MEL-5 melanoma = test system: SK-MEL-5 melanoma
SNB-19 CNS = test system: SNB-19 CNS
SW-620 colon = test system: SW-620 colon
TK-10 renal = test system: TK-10 renal

Structure (SMILES) | TGI (A498 renal) [µM] | TGI (A549 NSCLC) [µM] | TGI (BT-549 breast) [µM] | TGI (CCRF-CEM leukemia) [µM] | TGI (HCC-2998 colon) [µM] | TGI (HL-60(TB) leukemia) [µM] | TGI (HOP-62 NSCLC) [µM] | TGI (HOP-92 NSCLC) [µM] | TGI (HT29 colon) [µM] | TGI (MALME-3M melanoma) [µM] | TGI (MDA-MB-435) [µM] | TGI (MDA-N) [µM] | TGI (NCI-H460 lung) [µM] | TGI (PC-3 prostate) [µM] | TGI (RXF 393 renal) [µM] | TGI (SF-268 CNS) [µM] | TGI (SK-MEL-5 melanoma) [µM] | TGI (SNB-19 CNS) [µM] | TGI (SW-620 colon) [µM] | TGI (TK-10 renal) [µM]
Cc1nc2c(o1)C(=O)c1ccccc1C2=Nc1ccc(N2CCOCC2)cc1 | 35.4 | 17.8 | 5.73 | > 36.8 | 99.8 | 7.24 | 22.3 | > 100 | 60.9 | 3.25 | 3.58 | 3.5 | 26.8 | 7.37 | 2.97 | 23.6 | 3.2 | 36.9 | 26.5 | 99.1
CC(=O)N1CC(=O)N2C(=O)/C(=C/c3ccc(Cl)cc3)N=C12 | > 100 | > 100 | > 100 | > 100 | > 100 | 56.4 | > 100 | > 100 | > 100 | > 100 | > 100 | > 100 | > 100 | > 100 | > 100 | > 100 | > 100 | > 100 | > 100 | > 100
COc1ccc(/C(CC2OC(=O)c3ccccc32)=N\NC(=O)C[N+](C)(C)C)cc1 (centres undefined) | 60.1 | > 100 | 77.1 | 72 | 30.9 | > 100 | > 100 | 67.8 | 40.9 | > 100 | 71.9 | > 100 | 66.7 | > 100 | 77.6 | > 100 | 59.9 | 96.5 | 64.1 | 87.8
O=c1[nH]cnc2c1ncn2[C@@H]1C[C@H]1CO | > 100 | > 100 | > 100 | > 100 | > 100 | > 100 | > 100 | > 100 | > 100 | > 100 | > 100 | > 100 | > 100 | > 100 | > 100 | > 100 | > 100 | > 100 | > 100 | > 100
CN(C)Cc1cc(C=O)cc(CN(C)C)c1O | > 100 | > 100 | > 100 | > 100 | > 100 | > 100 | > 100 | > 100 | > 100 | > 100 | > 100 | > 100 | > 100 | > 100 | > 100 | > 100 | > 100 | > 100 | > 100 | > 100
O=C(O)[C@@H]1NC[C@H]2C(Br)=NO[C@H]21 | > 100 | > 100 | > 100 | > 100 | > 100 | > 100 | > 100 | > 100 | > 100 | > 100 | > 100 | > 100 | > 100 | > 100 | > 100 | > 100 | > 100 | > 100 | > 100 | > 100
O[C@@H]1C[C@H]2N3CC[C@@]2(c2cc4c(cc2C3)OCO4)[C@H]2O[C@@H]12 | > 100 | > 100 | > 100 | > 100 | > 100 | > 100 | > 100 | > 100 | > 100 | > 100 | > 100 | > 100 | > 100 | > 100 | > 100 | > 100 |  | > 100 | > 100 | > 100
Nc1nc(Nc2ccccc2)sc1C(=O)c1cccs1 | 38.8 | 41.7 | 35.7 | 16.6 | 32.6 | 12.5 | > 65.5 | 71 | 18.2 | 37.3 | 29.4 | 46.4 | 24.5 | 41.9 | 20.2 | 46.6 | 15.9 | 46.5 | 37.7 | 46.8
CN(C)CCCCN1c2ccccc2Sc2ccc(C(=O)c3ccccc3)cc21 | 32.5 | 7.22 | 18.8 | 6.61 | 3.97 | 3.97 | 6.99 | 8.99 | 3.88 | 3.33 | 3.51 | 6.74 | 5.46 | 6.4 | 4.17 | 17.7 | 3.42 | 12 | 2.91 | 8.42
CCCCCCCCCCCCCCCCOCC(CCl)OP(=O)(O)OP(=O)(O)OCC1OC(n2ccc(N)nc2=O)C(O)C1O (centres undefined) | > 100 | > 100 | > 100 | > 100 | > 100 | > 100 | > 100 | > 100 | > 100 | > 100 | > 100 | > 100 | > 100 | > 100 | > 100 | > 100 | > 100 | > 100 | > 100 | > 100
C[Si](C)(OCCS(=O)(=O)O)OC(=C1S(=O)(=O)OCCOS1(=O)=O)c1cccc2ccccc12 | > 100 | > 100 | > 100 | > 100 | > 100 | 36.9 | > 100 | > 100 | > 100 | > 100 | > 100 | > 100 | > 100 | > 100 | > 100 | > 100 | > 100 | > 100 | > 100 | > 100
CC(=N\N=C\c1ccccn1)/C(C)=N/N=C(C)/C(C)=N/N=C/c1ccccn1 | > 100 | > 100 | > 100 | > 100 | > 100 | > 100 | > 100 | > 100 | > 100 | > 100 | > 100 | > 100 | > 100 | > 100 | > 100 | > 100 | > 100 | > 100 | > 100 | > 100
NS(=O)(=O)c1ccc(Nc2c3ccccc3nc3c(C(=O)NCCO)cccc23)cc1 | 0.229 | 0.448 | 0.311 | > 1 | 0.333 | > 1 | 0.443 | 0.618 | 0.302 | 0.268 | 0.513 | 0.412 | 0.186 | 0.432 | 0.237 | 0.303 | 0.221 | 0.355 | 0.277 | 0.726
CC(C)=CCN1c2ccc(Cl)cc2NC(=O)CC1C (centres undefined) | 49 | > 100 | 59.5 | > 100 | > 100 | > 100 | 61.7 | 37.8 | 37.2 | 49.6 | 41.1 | 51.7 | 37.6 | 61.1 | 76 | > 100 | 32.2 | > 100 | > 100 | 87.7
